Columns and labels:
[1] = test system: Calu-6 Human NSCLC Xenografts; assay: Influence of time interval between FMdC and CDDP, Calu-6 human NSCLC xenografts, single dose; assay type: in vivo, nu/nu mice; settings: single agent, single dose i.p.; FMdC 200 mg/kg, CDDP 6 mg/kg
Description: (§1) This example evaluated the effect of FMdC in combination with cisplatin in two human non-small-cell lung cancer (NSCLC) xenograft models. This example examined the influence of the time interval between FMdC and cisplatin administration.
(§2) Xenogeneic NSCLC tumors of A549 cells or Calu-6 cells (available through ATCC, Rockville, Md.) were induced by intradermal injection of approximately 5×10^6 cells into the flanks of female nu/nu mice. Two to three weeks after tumor cell inoculation, when the tumors were approximately 10 mm^3 in size, treatment with FMdC and/or cisplatin solution was administered intraperitoneally (i.p.) in a volume of approximately 10 μL per gram of mouse body weight. Six to eight animals were used per treatment group.
(§3) The injectable solutions were prepared as follows: Lyophilized FMdC was reconstituted with sterile saline to a concentration of 2 or 20 mg/mL; was reconstituted with sterile saline to a concentration of 2 mg/mL; and cisplatin solution was prepared from lyophilized cisplatin (Cisplatin for Injection, David Bull Laboratories) by reconstitution with sterile water to a concentration of 0.4 or 0.6 mg/mL.
(§4) Tumor growth and animal body weight were determined twice weekly for up to 30 days. Tumor volume quadrupling time (TVQT) was used as the study endpoint. Tumor growth delay (TGD) is the difference between TVQTs of a treated group and untreated control.

[2] = test system: Calu-6; assay: MTT cell growth inhibition assay, Calu-6 lung carcinoma cells; assay type: cell-based, human; settings: Calu-6 cells, 72 hours exposure
Experimental: (§5) The antiproliferative activity of FMdC in combination with cisplatin on growth inhibition in human carcinoma cell lines in vitro was studied using the following method.
(§6) Two lung carcinoma cell lines, A549 and Calu-6, (available through ATCC, Rockville, Md.), were cultured in F12K medium with 10% fetal bovine serum at an atmosphere of 5% CO2 at 37° C. All cells were exposed to both FMdC and cisplatin in different concentrations for 72 hours.
(§7) Cell growth inhibition was determined by measuring the metabolic activity of cells using the MTT (tetrazolium salt) assay. For the MTT assays, the cells were seeded at 4×10^3 in 100 μL per well in a 96-well microtiter culture plate. The concentration of FMdC ranged from 10 nM to 100 μM and the concentration of cisplatin ranged from 1 μM to 10 mM. At the end of the treatment, tetrazolium salt (MTT) was added to each well and then solubilized. The microtiter plate was then measured (O.D. at 570 nm) using an ELISA plate reader. The 50% inhibitory concentrations (IC50) values of FMdC and cisplatin as single agents and in combination were determined.

[3] = test system: A549; assay: MTT cell growth inhibition assay, A549 lung carcinoma cells; assay type: cell-based, human; settings: 72 hours exposure
Experimental: as §5, §6, §7

[4] = test system: A549 Human NSCLC Xenografts; assay: Anti-tumor activity, A549 human NSCLC xenografts, multiple dose; assay type: in vivo, nu/nu mice; settings: i.p.; for TVQT (days) (M ± SE), tumor volume quadrupling time: FMdC or gemcitabine 20 mg/kg Day 0, 3, 7, 10, CDDP 4 mg/kg Day 0, 7, FMdC 15 minutes prior to cisplatin; for TGD (days) (M ± SE), tumor growth delay: FMdC or gemcitabine 20 mg/kg Day 0, 3, 7, 10, CDDP 4 mg/kg Day 0, 7, difference of TVQT vs untreated control
Description: This example evaluated the effect of FMdC in combination with cisplatin in a human non-small-cell lung cancer (NSCLC) xenograft model. This combination was compared to the administration of the combination of gemcitabine with cisplatin. Gemcitabine (Gemzar®, Eli Lilly and Company) is 2′-deoxy-2′,2′-difluorocytidine (dFdC).
as §2, with “A549” for “A549 cells or Calu-6”, “FMdC, gemcitabine or” for “FMdC and/or”
as §3, with “20 mg/mL; gemcitabine was reconstituted” for “20 mg/mL; was reconstituted”
For this multiple treatment regimens, FMdC or gemcitabine was administered twice a week for two weeks at 20 mg/kg and cisplatin was administered once a week for two weeks at 4 mg/kg. FMdC was administered by injection 15 minutes prior to the administration of cisplatin.
as §4

[5] = test system: A549 Human NSCLC Xenografts; assay: Influence of time interval between FMdC and CDDP, A549 human NSCLC xenografts, single dose; assay type: in vivo, nu/nu mice; settings: single agent, single dose i.p.; FMdC 200 mg/kg, CDDP 6 mg/kg
Description: as §1, §2, §3, §4

| SMILES | TGD (days) (M ± SE) [1] | TVQT (days) (M ± SE) [1] | Cell growth inhibition / cell death (MTT assay) [2] | Cell growth inhibition / cell death (MTT assay) [3] | TVQT (days) (M ± SE), tumor volume quadrupling time [4] | TGD (days) (M ± SE), tumor growth delay [4] | TGD (days) (M ± SE) [5] | TVQT (days) (M ± SE) [5] |
| --- | --- | --- | --- | --- | --- | --- | --- | --- |
| Nc1ccn([C@@H]2O[C@H](CO)[C@@H](O)/C2=C\F)c(=O)n1 [FMdC, (E)-2′-deoxy-2′-(fluoromethylene)cytidine] | 2.0 ± 0.6 | 11.3 ± 0.4 | not effective | not effective | 19.8 ± 1.1 | 3.0 ± 1.6 | 3.6 ± 1.3 | 17.8 ± 1.0 |
| N.N.[Cl][Pt][Cl] [CDDP, cis-diamminedichloroplatinum] | 8.8 ± 1.6 | 18.1 ± 1.5 | not effective | not effective | 18.1 ± 0.9 | 1.3 ± 1.5 | 1.9 ± 2.0 | 16.1 ± 1.8 |
| Nc1ccn([C@@H]2O[C@H](CO)[C@@H](O)C2(F)F)c(=O)n1 [Gemcitabine, 2′-deoxy-2′,2′-difluorocytidine] | – | – | – | – | 18.7 ± 1.0 | 1.9 ± 1.6 | – | – |

From US6544962B1, “Methods for treating cellular proliferative disorders” (Matrix Pharmaceutical, Inc., priority 2000, dated 2003)
